According to patent publication US20230293560A1, “METHOD FOR MODULATING THE BLADDER MICROBIOME TO IMPROVE BLADDER HEALTH” (Kimberly-Clark Worldwide, Inc., priority 2020, published 2023):

Experiments:
[1] = tested on: E. faecalis; assay: High throughput assay screening of prebiotics; format: cell-based, Enterococcus faecalis; parameters: key: ++: if growth and fermentation was equal to or greater than the positive control; +: if growth and fermentation was less than the positive control; +: if weak or no growth or fermentation; +^2: Bacteria demonstrated growth but no fermentation on the prebiotic; conditions: 2% w/v prebiotic in API 50 CHL media; for growth and fermentation vs positive control, Ef-1: E. faecalis ATCC BAA-2128, Culture Collection; for growth and fermentation vs positive control, Ef-2: E. faecalis KC16-7171-3, Bladder; for growth and fermentation vs positive control, Ef-3: E. faecalis KC17-3969-2B, Bladder; for growth and fermentation vs positive control, Ef-4: E. faecalis KC17-4331-3, Bladder
Method: (§1) Most of the prebiotic compounds were initially tested in a high throughput assay screening process, described further in the Test Methods section herein, but three prebiotics (as noted in Table 3) were tested using a plate assay screening process as described in the Test Methods section herein. The prebiotics were tested against the commensal bacterial species of Lactobacillus crispatus, Lactobacillus gasseri, and Lactobacillus jensenii and against the pathogenic bacterial species of Streptococcus anginosus and Enterococcus faecalis as shown in Table 2. The bacterial species were taken from different sources, listed as culture collection, bladder, and vagina.
(§2) The results of the assay plate screening of the prebiotic compounds of Table 1 against the bacterial species of Table 2 is documented in Table 3 with the results being described by the following legend: • ++ if growth and fermentation was equal to or greater than the positive control • + if growth and fermentation was less than the positive control • […] if weak or no growth or fermentation • NT if not tested Some codes were not tested based on the use or non-use by the bacteria, as a way to efficiently move through the assay plate screening to the competition assay, described below.
(§3) • 1. Create a 2% w/v stock of prebiotic or positive control (glucose/dextrose) to be tested in API 50 CHL media (Biomerieux, Marcy-I'Étoile, France). API 50 CHL media contains minimal amounts of carbon for growth, and a bromocresol purple as a pH indicator of fermentation. Filter sterilize media with a […]. Store at 4-6° C. until use. • 2. Add 180 μL of media containing the prebiotic to a sterile, flat bottom 96-well microtiter plate (Corning, Corning, NY). • 3. From a freezer stock subculture the bacteria twice into De Man, Rogosa and Sharpe (MRS) broth (BD Difco, Becton Dickinson, Franklin Lakes, NJ), 37° C., stationary, anaerobic, overnight. • 4. From the last subculture, plate onto an MRS agar plate (Teknova, Hollister, CA) and grow 37° C., stationary, anaerobic, overnight. • 5. Create a bacterial suspension by using a sterile tipped swab to transfer colonies of bacteria into a PBS suspension blank to a 0.5 MacFarland (S. anginosus or E. faecalis) or a 1 MacFarland (Lactobacillus species) from the MRS agar plate. • 6. Enumerate the starting culture. • 7. Inoculate the media alone and media containing the prebiotic or positive control with 20 μL of the bacterial suspension. • 8. Place the plate into a spectrophotometer (Molecular Devices, San Jose, CA) and read the plate every 20 minutes for 24-48 hours. Read wavelengths (OD 430, OD 590, and OD 660). A color change to yellow caused by a drop in pH will be read by an increase in the OD430 value and a decrease in the OD590 value and is indicative of bacterial fermentation. An increase in OD660 values is indicative of an increase in turbidity and bacterial growth.

[2] = tested on: S. anginosus; assay: High throughput assay screening of prebiotics; format: cell-based, Streptococcus anginosus; parameters: key: ++: if growth and fermentation was equal to or greater than the positive control; +: if growth and fermentation was less than the positive control; +: if weak or no growth or fermentation; +^2: Bacteria demonstrated growth but no fermentation on the prebiotic; conditions: 2% w/v prebiotic in API 50 CHL media; for growth and fermentation vs positive control, Sa-1: S. anginosus ATCC 33397, Culture Collection; for growth and fermentation vs positive control, Sa-2: S. anginosus KC18-1131-3B, Bladder
Method: as §1, §2, §3

[3] = tested on: L. gasseri; assay: High throughput assay screening of prebiotics; format: cell-based, Lactobacillus gasseri; parameters: key: ++: if growth and fermentation was equal to or greater than the positive control; +: if growth and fermentation was less than the positive control; +: if weak or no growth or fermentation; +^2: Bacteria demonstrated growth but no fermentation on the prebiotic; conditions: 2% w/v prebiotic in API 50 CHL media; for growth and fermentation vs positive control, Lg-1: L. gasseri KC16-7135-1, Bladder; for growth and fermentation vs positive control, Lg-2: L. gasseri KC16-7171-1, Bladder
Method: as §1, §2, §3

[4] = tested on: L. jensenii; assay: High throughput assay screening of prebiotics; format: cell-based, Lactobacillus jensenii; parameters: key: ++: if growth and fermentation was equal to or greater than the positive control; +: if growth and fermentation was less than the positive control; +: if weak or no growth or fermentation; +^2: Bacteria demonstrated growth but no fermentation on the prebiotic; conditions: 2% w/v prebiotic in API 50 CHL media; for growth and fermentation vs positive control, Lj-2: L. jensenii KC17-4347-1, Bladder
Method: as §1, §2, §3

[5] = tested on: L. crispatus; assay: High throughput assay screening of prebiotics; format: cell-based, Lactobacillus crispatus; parameters: key: ++: if growth and fermentation was equal to or greater than the positive control; +: if growth and fermentation was less than the positive control; +: if weak or no growth or fermentation; +^2: Bacteria demonstrated growth but no fermentation on the prebiotic; conditions: 2% w/v prebiotic in API 50 CHL media; for growth and fermentation vs positive control, Lc-1: L. crispatus ATCC 33820, Culture Collection; for growth and fermentation vs positive control, Lc-2: L. crispatus KC16-7134-3C, Bladder; for growth and fermentation vs positive control, Lc-3: L. crispatus KC18-1173-1, Bladder; for growth and fermentation vs positive control, Lc-4: L. crispatus KC18-1174-1, Vagina
Method: as §1, §2, §3

[6] = tested on: commensal and pathogenic bacterial species; assay: Prebiotic screening, summary in words across species; format: cell-based; conditions: commensal (L. crispatus, L. gasseri, L. jensenii) and pathogenic (S. anginosus, E. faecalis) species
In short: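 Prebiotics at 2% w/v stock in API 50 CHL medium with bromocresol purple, inoculated with bacteria and read every 20 min for 24-48 h at OD430/590 (fermentation) and OD660 (growth), scored against a glucose control. Some tested on MRS-based agar with the prebiotic in place of glucose; competition assay with L. crispatus and S. anginosus incubated 48 h anaerobically at 37 °C, then enumerated on MRS and TSA.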

**Q.** Which results are given for `OCc1ccccc1O[C@@H]1O[C@H](CO)[C@@H](O)[C@H](O)[C@H]1O` [Salicin]?
**A.** growth and fermentation vs positive control, Ef-1 [1]: ++; growth and fermentation vs positive control, Ef-2 [1]: ++; growth and fermentation vs positive control, Ef-3 [1]: ++; growth and fermentation vs positive control, Ef-4 [1]: ++; growth and fermentation vs positive control, Sa-1 [2]: ++; growth and fermentation vs positive control, Sa-2 [2]: ++; growth and fermentation vs positive control, Lg-1 [3]: ++; growth and fermentation vs positive control, Lj-2 [4]: ++; growth and fermentation vs positive control, Lc-1 [5]: ++; overall outcome of the screening of Table 3, in words [6]: able to provide growth on the commensal bacterial species, but also provided growth on the pathogenic bacterial species

**Q.** For Maltotriose, which “growth and fermentation vs positive control, Ef-1” value [1] is on record?
**A.** The value was “++”.

**Q.** And the “growth and fermentation vs positive control, Ef-2” value [1]?
**A.** The value was “++”.

**Q.** What about the “growth and fermentation vs positive control, Ef-3” value [1] of the same compound?
**A.** Its value is “++”.

**Q.** And the “growth and fermentation vs positive control, Ef-4” value [1]?
**A.** Its value is “++”.

**Q.** And the “growth and fermentation vs positive control, Sa-1” value [2]?
**A.** Its value is “++”.

**Q.** What about the “growth and fermentation vs positive control, Sa-2” value [2] of the same compound?
**A.** Its value is “++”.

**Q.** What about the “growth and fermentation vs positive control, Lg-1” value [3] of the same compound?
**A.** The value was “++”.

**Q.** And the “growth and fermentation vs positive control, Lg-2” value [3]?
**A.** The value was “++”.

**Q.** What about the “growth and fermentation vs positive control, Lj-2” value [4] of the same compound?
**A.** The value was “++”.

**Q.** And the “growth and fermentation vs positive control, Lc-1” value [5]?
**A.** The value was “++”.

**Q.** What about the “growth and fermentation vs positive control, Lc-2” value [5] of the same compound?
**A.** Its value is “++”.

**Q.** What about the “growth and fermentation vs positive control, Lc-3” value [5] of the same compound?
**A.** The value was “++”.

**Q.** And the “growth and fermentation vs positive control, Lc-4” value [5]?
**A.** The value was “++”.

**Q.** What about the “overall outcome of the screening of Table 3, in words” value [6] of the same compound?
**A.** The value was “able to provide growth on the commensal bacterial species, but also provided growth on the pathogenic bacterial species”.

**Q.** For `OC[C@H]1O[C@](O)(CO)[C@@H](O)[C@@H]1O` [Beta-D-fructose, Beta-D-Fructose], which “growth and fermentation vs positive control, Ef-2” value [1] is on record?
**A.** Its value is “++”.

**Q.** What about the “growth and fermentation vs positive control, Ef-3” value [1] of the same compound?
**A.** The value was “++”.

**Q.** What about the “growth and fermentation vs positive control, Ef-4” value [1] of the same compound?
**A.** Its value is “++”.

**Q.** What about the “growth and fermentation vs positive control, Sa-2” value [2] of the same compound?
**A.** The value was “++”.

**Q.** What about the “growth and fermentation vs positive control, Lg-1” value [3] of the same compound?
**A.** Its value is “+”.

**Q.** What about the “growth and fermentation vs positive control, Lg-2” value [3] of the same compound?
**A.** The value was “+”.

**Q.** What about the “growth and fermentation vs positive control, Lg-3” value ([3]; L. gasseri KC18-1131-2, Bladder) of the same compound?
**A.** Its value is “+”.

**Q.** What about the “growth and fermentation vs positive control, Lg-4” value ([3]; L. gasseri KC18-1142-2, Bladder) of the same compound?
**A.** The value was “+”.

**Q.** And the “growth and fermentation vs positive control, Lj-1” value ([4]; L. jensenii KC17-4297-18, Bladder)?
**A.** The value was “++”.

**Q.** What about the “growth and fermentation vs positive control, Lj-2” value [4] of the same compound?
**A.** Its value is “+”.

**Q.** And the “growth and fermentation vs positive control, Lj-3” value ([4]; L. jensenii KC17-4368-2, Bladder)?
**A.** The value was “++”.

**Q.** What about the “growth and fermentation vs positive control, Lc-2” value [5] of the same compound?
**A.** Its value is “++”.

**Q.** What about the “growth and fermentation vs positive control, Lc-3” value [5] of the same compound?
**A.** Its value is “++”.

**Q.** What about the “growth and fermentation vs positive control, Lc-4” value [5] of the same compound?
**A.** The value was “++”.

**Q.** And the “overall outcome of the screening of Table 3, in words” value [6]?
**A.** The value was “able to provide growth on the commensal bacterial species, but also provided growth on the pathogenic bacterial species”.
